Results reported in publication PMC7026418, “The kinase polypharmacology landscape of clinical PARP inhibitors” (Scientific Reports, 2020).
Read-outs that look alike come from different tables or passages of the source.

Columns and labels:
Test in all cases: biochemical
Set-up in all cases: DiscoveRx KINOMEscan active site-directed competition binding; percent of control kinase bound to immobilised ligand
[1] = molecular target: T1, CAMK1B (Homo sapiens, UniProt Q6P2M8)
T1 construct: gene PNCK

[2] = molecular target: T2, CDC2L1 (Homo sapiens, UniProt P21127)
T2 construct: gene CDK11B

[3] = molecular target: T3, TYK2(JH1domain-catalytic) (Homo sapiens, UniProt P29597)
T3 construct: JH1domain-catalytic

[4] = molecular target: WNK3 (Homo sapiens, UniProt Q9BYP7)
[5] = molecular target: T4, RIPK5 (Homo sapiens, UniProt Q6XUX3)
T4 construct: gene DSTYK
T4 sequence (Q6XUX3 1-929): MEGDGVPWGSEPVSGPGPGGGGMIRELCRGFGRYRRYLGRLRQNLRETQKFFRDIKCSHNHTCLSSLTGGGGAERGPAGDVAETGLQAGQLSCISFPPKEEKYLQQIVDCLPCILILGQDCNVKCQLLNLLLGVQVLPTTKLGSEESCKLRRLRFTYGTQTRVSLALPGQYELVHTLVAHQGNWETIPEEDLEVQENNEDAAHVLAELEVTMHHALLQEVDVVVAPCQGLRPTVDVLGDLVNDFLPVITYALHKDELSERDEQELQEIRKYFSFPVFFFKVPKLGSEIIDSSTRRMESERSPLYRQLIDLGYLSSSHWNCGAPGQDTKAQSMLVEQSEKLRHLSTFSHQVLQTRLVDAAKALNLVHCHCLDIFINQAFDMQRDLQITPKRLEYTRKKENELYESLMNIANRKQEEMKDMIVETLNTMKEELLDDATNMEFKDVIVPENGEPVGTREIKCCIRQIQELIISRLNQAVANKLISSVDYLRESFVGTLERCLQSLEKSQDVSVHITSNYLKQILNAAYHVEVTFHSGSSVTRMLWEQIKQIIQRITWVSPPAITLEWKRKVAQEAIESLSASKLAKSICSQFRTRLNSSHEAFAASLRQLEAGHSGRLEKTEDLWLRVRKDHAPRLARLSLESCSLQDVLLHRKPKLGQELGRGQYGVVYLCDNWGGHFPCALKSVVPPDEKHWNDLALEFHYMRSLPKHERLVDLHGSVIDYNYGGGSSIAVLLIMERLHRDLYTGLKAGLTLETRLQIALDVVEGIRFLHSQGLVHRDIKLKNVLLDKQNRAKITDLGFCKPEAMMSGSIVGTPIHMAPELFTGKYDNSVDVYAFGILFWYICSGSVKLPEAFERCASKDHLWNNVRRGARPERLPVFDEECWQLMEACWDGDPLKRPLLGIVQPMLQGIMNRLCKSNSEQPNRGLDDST

[6] = molecular target: T5, TRKB (Homo sapiens, UniProt Q16620)
T5 construct: gene NTRK2

[7] = molecular target: T6, FLT3(D835V) (Homo sapiens, UniProt P36888, D835V)
T6 sequence (P36888 1-993 D835V): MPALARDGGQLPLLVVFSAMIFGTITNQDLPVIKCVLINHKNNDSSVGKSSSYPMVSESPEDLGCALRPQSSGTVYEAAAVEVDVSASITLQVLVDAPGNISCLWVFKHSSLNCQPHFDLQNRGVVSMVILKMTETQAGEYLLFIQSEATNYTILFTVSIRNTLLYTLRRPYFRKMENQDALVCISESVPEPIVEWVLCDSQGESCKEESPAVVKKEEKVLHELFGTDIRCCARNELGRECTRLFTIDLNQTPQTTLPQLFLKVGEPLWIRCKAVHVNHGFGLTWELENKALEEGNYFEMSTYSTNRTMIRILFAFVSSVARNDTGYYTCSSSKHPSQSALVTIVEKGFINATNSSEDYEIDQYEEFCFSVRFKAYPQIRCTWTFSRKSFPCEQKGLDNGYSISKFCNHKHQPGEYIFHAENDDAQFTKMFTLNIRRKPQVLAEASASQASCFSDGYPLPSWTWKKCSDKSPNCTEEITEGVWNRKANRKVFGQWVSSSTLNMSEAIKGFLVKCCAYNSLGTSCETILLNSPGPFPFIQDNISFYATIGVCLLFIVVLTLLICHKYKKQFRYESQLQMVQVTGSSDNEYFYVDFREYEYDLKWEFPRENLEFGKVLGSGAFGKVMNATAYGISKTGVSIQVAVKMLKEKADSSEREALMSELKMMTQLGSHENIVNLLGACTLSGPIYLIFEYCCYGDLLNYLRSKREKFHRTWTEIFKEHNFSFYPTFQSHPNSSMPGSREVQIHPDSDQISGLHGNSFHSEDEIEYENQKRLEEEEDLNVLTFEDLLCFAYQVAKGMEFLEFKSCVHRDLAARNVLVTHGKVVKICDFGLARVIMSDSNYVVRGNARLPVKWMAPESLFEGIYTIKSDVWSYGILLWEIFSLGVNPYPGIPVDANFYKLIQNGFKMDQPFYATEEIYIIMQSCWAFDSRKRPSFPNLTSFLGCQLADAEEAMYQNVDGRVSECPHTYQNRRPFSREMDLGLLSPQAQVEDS

[8] = molecular target: AURKB (Homo sapiens, UniProt Q96GD4)
[9] = molecular target: PIK3C2B (Homo sapiens, UniProt O00750)
[10] = molecular target: FGFR3(G697C) (Homo sapiens, UniProt P22607, G697C)
[11] = read-out: Talazoparib (BMN 673) / %Ctrl @ 10000nM
[12] = read-out: Olaparib / %Ctrl @ 10000nM
[13] = read-out: Niraparib (MK-4827) / %Ctrl @ 10000nM
[14] = read-out: Rucaparib / %Ctrl @ 10000nM, binding competition, % of control

T2 sequence (P21127 whole entry): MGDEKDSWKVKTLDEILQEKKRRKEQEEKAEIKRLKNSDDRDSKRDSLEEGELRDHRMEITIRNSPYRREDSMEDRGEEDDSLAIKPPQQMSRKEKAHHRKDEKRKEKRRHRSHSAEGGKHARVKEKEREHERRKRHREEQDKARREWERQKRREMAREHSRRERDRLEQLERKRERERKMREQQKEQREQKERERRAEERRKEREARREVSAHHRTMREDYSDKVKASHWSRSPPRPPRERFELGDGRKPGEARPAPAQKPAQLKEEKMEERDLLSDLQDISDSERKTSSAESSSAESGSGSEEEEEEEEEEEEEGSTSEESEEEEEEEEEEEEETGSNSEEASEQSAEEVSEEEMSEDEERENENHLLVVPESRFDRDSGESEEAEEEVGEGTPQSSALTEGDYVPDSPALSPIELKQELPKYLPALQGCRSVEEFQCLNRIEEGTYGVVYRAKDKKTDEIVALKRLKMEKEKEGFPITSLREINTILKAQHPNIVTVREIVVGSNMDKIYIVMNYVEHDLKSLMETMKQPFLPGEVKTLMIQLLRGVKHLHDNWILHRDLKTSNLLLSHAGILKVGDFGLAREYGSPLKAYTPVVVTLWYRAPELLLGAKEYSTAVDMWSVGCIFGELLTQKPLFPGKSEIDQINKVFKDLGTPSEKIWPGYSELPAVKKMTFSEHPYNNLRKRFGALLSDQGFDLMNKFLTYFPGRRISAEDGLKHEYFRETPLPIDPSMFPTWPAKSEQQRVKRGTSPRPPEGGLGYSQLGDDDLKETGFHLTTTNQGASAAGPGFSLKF
T3 sequence (P29597 whole entry): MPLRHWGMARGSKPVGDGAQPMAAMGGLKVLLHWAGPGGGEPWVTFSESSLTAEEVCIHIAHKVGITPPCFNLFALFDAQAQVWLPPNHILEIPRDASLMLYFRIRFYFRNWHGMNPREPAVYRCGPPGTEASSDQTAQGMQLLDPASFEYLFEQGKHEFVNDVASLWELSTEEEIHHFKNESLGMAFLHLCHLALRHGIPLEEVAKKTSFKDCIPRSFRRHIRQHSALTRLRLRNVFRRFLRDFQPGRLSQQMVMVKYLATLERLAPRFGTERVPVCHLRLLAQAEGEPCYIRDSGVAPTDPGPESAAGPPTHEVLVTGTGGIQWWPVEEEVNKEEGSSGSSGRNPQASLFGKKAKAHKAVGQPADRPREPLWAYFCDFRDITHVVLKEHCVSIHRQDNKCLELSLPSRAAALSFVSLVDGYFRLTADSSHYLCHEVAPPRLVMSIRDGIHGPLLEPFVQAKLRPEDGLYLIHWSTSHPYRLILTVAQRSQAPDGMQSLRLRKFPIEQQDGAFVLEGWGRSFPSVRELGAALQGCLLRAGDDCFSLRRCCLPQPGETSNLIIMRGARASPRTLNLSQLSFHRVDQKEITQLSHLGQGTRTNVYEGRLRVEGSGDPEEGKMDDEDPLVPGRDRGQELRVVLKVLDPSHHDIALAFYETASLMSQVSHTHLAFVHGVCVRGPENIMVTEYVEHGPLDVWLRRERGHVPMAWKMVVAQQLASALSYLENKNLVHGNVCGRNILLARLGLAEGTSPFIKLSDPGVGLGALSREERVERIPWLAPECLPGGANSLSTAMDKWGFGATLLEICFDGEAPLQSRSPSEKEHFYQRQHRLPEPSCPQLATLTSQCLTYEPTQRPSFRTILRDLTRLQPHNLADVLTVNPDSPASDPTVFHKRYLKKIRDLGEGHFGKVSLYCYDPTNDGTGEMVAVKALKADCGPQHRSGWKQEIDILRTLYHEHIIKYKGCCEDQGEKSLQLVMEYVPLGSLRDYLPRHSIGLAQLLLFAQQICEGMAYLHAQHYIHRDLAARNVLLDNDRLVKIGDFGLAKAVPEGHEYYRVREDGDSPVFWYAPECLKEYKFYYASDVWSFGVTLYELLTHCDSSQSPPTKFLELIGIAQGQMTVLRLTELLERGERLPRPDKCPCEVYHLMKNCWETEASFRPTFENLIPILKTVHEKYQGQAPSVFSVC
PIK3C2B, sequence (O00750 whole entry): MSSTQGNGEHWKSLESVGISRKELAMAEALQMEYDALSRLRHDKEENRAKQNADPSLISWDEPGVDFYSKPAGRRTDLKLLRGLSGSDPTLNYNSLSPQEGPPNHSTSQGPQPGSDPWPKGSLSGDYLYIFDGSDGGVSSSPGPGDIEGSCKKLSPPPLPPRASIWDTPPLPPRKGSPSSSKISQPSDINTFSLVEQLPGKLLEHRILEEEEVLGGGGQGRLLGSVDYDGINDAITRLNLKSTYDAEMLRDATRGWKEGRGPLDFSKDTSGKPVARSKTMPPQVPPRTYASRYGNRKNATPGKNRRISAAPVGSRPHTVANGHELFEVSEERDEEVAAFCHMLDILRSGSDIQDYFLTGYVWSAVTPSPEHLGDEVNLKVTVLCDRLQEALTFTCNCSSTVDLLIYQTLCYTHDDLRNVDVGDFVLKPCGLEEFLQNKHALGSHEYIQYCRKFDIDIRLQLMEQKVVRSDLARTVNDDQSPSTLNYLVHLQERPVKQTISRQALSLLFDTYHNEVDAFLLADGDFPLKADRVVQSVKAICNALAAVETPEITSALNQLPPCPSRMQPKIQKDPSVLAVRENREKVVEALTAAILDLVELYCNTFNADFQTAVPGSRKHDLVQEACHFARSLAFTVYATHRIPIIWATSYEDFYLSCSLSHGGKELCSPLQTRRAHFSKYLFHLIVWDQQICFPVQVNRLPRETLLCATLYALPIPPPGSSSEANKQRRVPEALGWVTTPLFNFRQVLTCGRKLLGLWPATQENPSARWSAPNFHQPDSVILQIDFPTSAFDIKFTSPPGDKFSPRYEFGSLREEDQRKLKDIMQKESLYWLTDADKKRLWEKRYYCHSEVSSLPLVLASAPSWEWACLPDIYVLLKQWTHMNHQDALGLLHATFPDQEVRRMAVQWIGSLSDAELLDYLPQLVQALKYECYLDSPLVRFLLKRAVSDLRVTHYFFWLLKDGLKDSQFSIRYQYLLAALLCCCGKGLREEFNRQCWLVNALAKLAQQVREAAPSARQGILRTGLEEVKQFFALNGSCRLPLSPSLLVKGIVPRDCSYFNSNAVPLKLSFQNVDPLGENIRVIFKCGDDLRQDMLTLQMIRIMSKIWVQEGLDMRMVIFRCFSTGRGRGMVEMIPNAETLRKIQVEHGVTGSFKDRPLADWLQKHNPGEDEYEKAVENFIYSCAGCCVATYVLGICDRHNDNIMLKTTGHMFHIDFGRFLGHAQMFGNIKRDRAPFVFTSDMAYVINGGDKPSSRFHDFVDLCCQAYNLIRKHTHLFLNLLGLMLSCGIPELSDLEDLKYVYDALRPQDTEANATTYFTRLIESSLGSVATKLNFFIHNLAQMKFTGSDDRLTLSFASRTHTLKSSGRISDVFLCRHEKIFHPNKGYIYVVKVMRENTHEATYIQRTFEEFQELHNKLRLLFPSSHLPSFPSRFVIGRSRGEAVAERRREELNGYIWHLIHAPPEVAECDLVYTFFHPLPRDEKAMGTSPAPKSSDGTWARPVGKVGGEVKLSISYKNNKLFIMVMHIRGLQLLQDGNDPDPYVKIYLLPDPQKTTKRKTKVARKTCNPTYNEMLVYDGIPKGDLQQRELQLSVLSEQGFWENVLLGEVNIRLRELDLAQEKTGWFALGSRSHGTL
AURKB, sequence (Q96GD4 whole entry): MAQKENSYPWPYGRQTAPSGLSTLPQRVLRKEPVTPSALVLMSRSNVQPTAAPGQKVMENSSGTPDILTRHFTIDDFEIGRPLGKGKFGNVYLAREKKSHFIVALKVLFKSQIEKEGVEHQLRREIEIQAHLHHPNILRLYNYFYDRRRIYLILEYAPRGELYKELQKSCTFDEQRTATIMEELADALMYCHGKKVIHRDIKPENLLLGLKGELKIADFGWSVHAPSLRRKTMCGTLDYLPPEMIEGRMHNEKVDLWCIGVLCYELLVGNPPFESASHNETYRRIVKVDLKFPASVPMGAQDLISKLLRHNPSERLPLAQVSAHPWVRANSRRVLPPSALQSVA
T5 sequence (Q16620 whole entry): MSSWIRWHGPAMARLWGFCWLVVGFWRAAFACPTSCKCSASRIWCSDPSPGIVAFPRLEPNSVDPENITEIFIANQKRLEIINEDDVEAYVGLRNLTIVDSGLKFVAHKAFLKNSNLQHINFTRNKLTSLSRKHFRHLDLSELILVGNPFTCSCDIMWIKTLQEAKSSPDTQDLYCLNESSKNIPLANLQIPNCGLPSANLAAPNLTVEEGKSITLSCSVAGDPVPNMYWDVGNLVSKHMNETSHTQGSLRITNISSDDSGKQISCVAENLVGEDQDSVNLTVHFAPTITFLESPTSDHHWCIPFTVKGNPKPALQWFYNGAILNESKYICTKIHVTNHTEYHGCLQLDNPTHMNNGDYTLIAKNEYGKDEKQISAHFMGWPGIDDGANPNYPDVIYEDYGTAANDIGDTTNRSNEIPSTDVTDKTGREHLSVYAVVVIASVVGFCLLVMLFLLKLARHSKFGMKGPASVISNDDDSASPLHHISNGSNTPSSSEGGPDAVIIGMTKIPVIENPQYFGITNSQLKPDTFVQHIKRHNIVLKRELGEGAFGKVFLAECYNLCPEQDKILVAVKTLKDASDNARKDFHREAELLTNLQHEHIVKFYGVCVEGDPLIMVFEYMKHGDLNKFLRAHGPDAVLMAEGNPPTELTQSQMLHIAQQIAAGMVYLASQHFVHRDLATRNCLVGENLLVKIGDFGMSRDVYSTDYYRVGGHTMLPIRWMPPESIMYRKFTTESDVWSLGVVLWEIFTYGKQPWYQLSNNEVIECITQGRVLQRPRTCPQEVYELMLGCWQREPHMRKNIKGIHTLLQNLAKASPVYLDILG

Cn1ncnc1[C@H]1c2n[nH]c(=O)c3cc(F)cc(c23)N[C@@H]1c1ccc(F)cc1 [Talazoparib]
percent of control binding at 10 µM [1, 11]: 100%
percent of control binding at 10 µM [2, 11]: 100%
percent of control binding at 10 µM [3, 11]: 94%
percent of control binding at 10 µM [4, 11]: 100%
percent of control binding at 10 µM [5, 11]: 100%
percent of control binding at 10 µM [6, 11]: 100%
percent of control binding at 10 µM [7, 11]: 100%
percent of control binding at 10 µM [8, 11]: 73%
percent of control binding at 10 µM [9, 11]: 67%
percent of control binding at 10 µM [10, 11]: 92%

O=C(c1cc(Cc2n[nH]c(=O)c3ccccc23)ccc1F)N1CCN(C(=O)C2CC2)CC1 [Olaparib]
percent of control binding at 10 µM [1, 12]: 97%
percent of control binding at 10 µM [2, 12]: 99%
percent of control binding at 10 µM [3, 12]: 84%
percent of control binding at 10 µM [4, 12]: 88%
percent of control binding at 10 µM [5, 12]: 100%
percent of control binding at 10 µM [6, 12]: 76%
percent of control binding at 10 µM [7, 12]: 100%
percent of control binding at 10 µM [8, 12]: 100%
percent of control binding at 10 µM [9, 12]: 100%
percent of control binding at 10 µM [10, 12]: 98%

NC(=O)c1cccc2cn(-c3ccc([C@@H]4CCCNC4)cc3)nc12 [Niraparib]
percent of control binding at 10 µM [1, 13]: 94%
percent of control binding at 10 µM [2, 13]: 100%
percent of control binding at 10 µM [3, 13]: 96%
percent of control binding at 10 µM [4, 13]: 100%
percent of control binding at 10 µM [5, 13]: 89%
percent of control binding at 10 µM [6, 13]: 96%
percent of control binding at 10 µM [7, 13]: 83%
percent of control binding at 10 µM [8, 13]: 8.1%
percent of control binding at 10 µM [9, 13]: 100%
percent of control binding at 10 µM [10, 13]: 90%

CNCc1ccc(-c2[nH]c3cc(F)cc4c3c2CCNC4=O)cc1 [Rucaparib]
percent of control binding at 10 µM [1, 14]: 100%
percent of control binding at 10 µM [2, 14]: 99%
percent of control binding at 10 µM [3, 14]: 66%
percent of control binding at 10 µM [4, 14]: 86%
percent of control binding at 10 µM [5, 14]: 96%
percent of control binding at 10 µM [6, 14]: 66%
Rucaparib / %Ctrl @ 10000nM ([7]; binding competition, % of control): 15%
percent of control binding at 10 µM [8, 14]: 100%
percent of control binding at 10 µM [9, 14]: 98%
percent of control binding at 10 µM [10, 14]: 100%
